Measured values taken from the NIST ThermoML archive (doi:10.1016/j.jct.2004.07.004).

Assay: mn = molality of the nth substance listed, in mol/kg
Conditions: 100 kPa, Liquid

CC(C)C[C@H](NC(=O)[C@@H]1CCCN1)C(=O)O [proline-leucine] + O
mass density [kg/m3]
Conditions	283.15 K	288.15 K	293.15 K	298.15 K	303.15 K	308.15 K
m1 = 0.00191	–	–	998.299	–	–	994.122
m1 = 0.0025	–	999.209	998.324	997.166	–	994.156
m1 = 0.00255	–	–	–	–	995.771	–
m1 = 0.0035	999.851	999.261	998.368	997.215	–	994.198
m1 = 0.00399	–	999.283	998.394	–	–	–
m1 = 0.0045	999.901	999.303	998.416	997.251	995.856	994.246
m1 = 0.00505	999.956	999.356	998.452	–	–	994.278
m1 = 0.00549	–	999.353	998.462	997.3	995.925	994.294
m1 = 0.00602	1000	999.407	998.502	997.35	995.943	994.322
m1 = 0.00649	–	–	998.533	997.374	995.96	994.345
m1 = 0.00709	1000.06	999.445	998.552	997.381	–	–
m1 = 0.00748	–	999.48	998.581	997.416	995.999	994.392
m1 = 0.00776	1000.09	–	–	–	–	–
m1 = 0.00833	–	999.516	998.63	–	996.05	994.433
m1 = 0.00849	–	999.544	998.633	997.468	996.044	994.436
m1 = 0.00904	1000.16	999.542	998.644	–	–	–
m1 = 0.00949	–	999.594	998.69	997.521	996.091	–
m1 = 0.01004	–	999.608	998.704	997.541	996.128	994.51
m1 = 0.0105	1000.24	999.641	998.74	997.562	996.136	–
m1 = 0.01084	1000.25	999.633	–	997.57	–	994.545
m1 = 0.01148	1000.3	999.691	998.787	997.614	996.183	–
